Measurements taken from patent US20050019288A1, “Alcohol-based aerosol deodorant composition comprising at lease one zinc salicylate or a derivative thereof” (priority 2003, published 2005).

Assays:
[1] = Efficacy test: odor of incubated underarm sweat judged by a panel of experts against control sweat; design: species or system human; details: 37° C, average of 18 hours and 24 hours, compared with control sweat
Protocol: Underarm sweat was collected from six volunteers in a sauna, the samples of individual sweat, stored in ice for a few hours, are at that point virtually odorless. They were subsequently mixed together and divided into 1 ml aliquots. The active agents were added to these aliquots, which were then incubated in an oven at 37° C. After these samples were incubated for 18 and 24 hours, a panel of experts evaluated the intensity of the odor compared with a control sample, which was 1 ml of sweat incubated without addition of active agent.
The results are expressed below as a percentage of change in the unpleasantness of the odor compared with this control sweat sample (average of the percentages of change at 18 hours and 24 hours).
The active agents (A) and (B) correspond to zinc salicylate trihydrate from Bernardy Chimie and to the active agent (C) containing Triclosan.

Corynebacterium xerosis = experiment: Bactericidal activity of a composition on microorganisms involved in underarm odor; assay type: cell-based; details: summary in text for the active agent
Protocol: The test described herein allows a quantitative determination of the bactericidal activity of a composition on microorganisms under optimum growth conditions, i.e., microorganisms of the Corynebacterium xerosis type (Institut Pasteur Collection No. 5216) grown on soybean tryptocasein agar on a slope.
On the day before the test, 32 g of soybean tryptocasein broth were placed in a pill bottle and incubated at 35° C. On the day of the test, 4 g of the test composition were added and the mixture was homogenized using a Vortex mixer.
A product-free growth control was prepared under the same conditions in order to check that the microorganisms were under favorable growth conditions throughout the duration of the test.
For the preparation of the inoculum, five days before the start of the test, the two bacterial strains were subcultured on a suitable medium. Incubation was performed for 5 days at 35° C. On the day of the test, the slope was washed with about 9 ml of diluent: the suspension obtained has a titre of […] (counting was performed). […]
The colonies were counted on the dishes containing more than 20 and less than 200 colonies. […]
The bactericidal activity of each of the formulations 2, 3 and 4 with respect to the strain Corynebacterium xerosis was measured and compared with a formulation without active agent.

With Oc1cc(Cl)ccc1Oc1ccc(Cl)cc1Cl [(C), 2,4,4′-trichloro-2′-hydroxydiphenyl ether, reference compound] as the molecule, how does the “% change in the unpleasantness of odor” value ([1]; 0.8 mg AM/ml of sweat) read?
Its value is −55%.

With Zinc salicylate as the molecule, how does the “antibacterial activity on the Corynebacterium xerosis strains” value (Corynebacterium xerosis) read?
The value was “low (1 Log of reduction: low)”.

For zinc salicylate trihydrate [(A)], which “% change in the unpleasantness of odor” value ([1]; 1 mg AM/ml of sweat) is on record?
Its value is −45%.

What about the “% change in the unpleasantness of odor” value ([1]; 5 mg AM/ml of sweat) of the same molecule?
Its value is −48%.
